Laboratory results published in ChEMBL document CHEMBL1201862, “PubChem BioAssay data set” (2004).
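Test compounds were applied to cells in 96-well plates for 48 hours at 5 doses. GI50 marks 50% less growth.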 The source made the active and inactive calls. No stated cut-off is given here; in the data, active = GI50 up to about 1.1 µM and inactive = higher.

Assays:
Test in all cases: inhibition of tumour cell growth, NCI panel, 48 h
[1] = test system: MCF7
[2] = test system: A498
[3] = test system: SK-MEL-28
[4] = test system: NCI-H522
[5] = test system: HT-29
[6] = test system: OVCAR-8
[7] = test system: LOX IMVI
[8] = test system: SN12C
[9] = test system: SF-295
[10] = test system: UACC-62
[11] = test system: UACC-257
[12] = test system: IGROV-1
[13] = test system: NCI/ADR-RES
[14] = test system: OVCAR-3
[15] = test system: UO-31
[16] = test system: HL-60
[17] = test system: U-251
[18] = test system: SW-620
[19] = test system: SK-MEL-2

Measured: GI50

C=C(CCC/C(C)=C/C=C/[C@]1(C)CCCc2ccoc21)CC(=O)O
inactive: [1] 82.6 µM | [2] > 100 µM | [3] > 100 µM | [4] > 100 µM | [5] > 100 µM | [6] > 100 µM | [7] > 100 µM | [8] > 100 µM | [9] > 100 µM | [10] 75.3 µM | [11] > 100 µM | [12] > 100 µM | [13] > 100 µM | [14] 54.8 µM | [15] > 100 µM | [16] 43.6 µM | [17] 68.4 µM | [18] > 100 µM | [19] > 100 µM

CCOC(=O)C1(Cc2ccccc2)CCN(C(=O)c2ccccc2)C2C1C2(Cl)Cl (centres undefined)
inactive: [1] 25.4 µM | [2] 18.8 µM | [3] 21.1 µM | [4] 18.1 µM | [5] 16.6 µM | [6] 28.3 µM | [7] 18.4 µM | [8] 16.4 µM | [9] 23.3 µM | [10] 12 µM | [11] 15.2 µM | [12] 31.2 µM | [13] 21.3 µM | [14] 18.3 µM | [15] 28.4 µM | [16] 12.2 µM | [17] 15.9 µM | [18] 25.7 µM | [19] 15.6 µM

OC1CCC(C2C3CCCCC3C3CCCCC3C2C2CCC(O)CC2)CC1 (centres undefined)
inactive: [1] 3.4 µM | [2] 15.8 µM | [3] 3.83 µM | [4] 2.34 µM | [5] 2.05 µM | [6] 3.72 µM | [7] 2.31 µM | [8] 5.13 µM | [9] 4.28 µM | [10] 7.16 µM | [11] 13.6 µM | [12] 3.7 µM | [13] 4.58 µM | [14] 4.67 µM | [15] 4.81 µM | [16] 4.13 µM | [17] 3.6 µM | [18] 3.99 µM | [19] 5.56 µM

CCCCC/C(=N\c1[nH]cnc1C(N)=O)OCC
inactive: [1] > 100 µM | [2] > 100 µM | [3] > 100 µM | [4] 75 µM | [5] > 100 µM | [6] > 100 µM | [7] > 100 µM | [8] > 100 µM | [9] > 100 µM | [10] > 100 µM | [11] > 100 µM | [12] > 100 µM | [13] > 100 µM | [14] > 100 µM | [15] 55.5 µM | [16] > 100 µM | [17] > 100 µM | [18] > 100 µM | [19] > 100 µM

N#CCN1CCCN(CC#N)CCN(CC#N)CCCN(CC#N)CC1
inactive: [1] > 100 µM | [2] > 100 µM | [3] > 100 µM | [4] > 100 µM | [5] > 10 µM | [6] > 100 µM | [7] 16.7 µM | [8] > 100 µM | [9] > 100 µM | [10] > 100 µM | [11] > 100 µM | [12] > 100 µM | [13] > 100 µM | [14] > 100 µM | [15] > 100 µM | [16] 43.8 µM | [17] > 100 µM | [18] 86.9 µM | [19] > 100 µM

c1ccc(CCCN2C3CCC2CN(CCOC(c2ccccc2)c2ccccc2)C3)cc1
inactive: [1] 12.6 µM | [2] 10.1 µM | [3] 13.3 µM | [4] 10.9 µM | [5] 3.58 µM | [6] 11.4 µM | [7] 12.1 µM | [8] 12.1 µM | [9] 12.2 µM | [10] 12.9 µM | [11] 8.49 µM | [12] 13.8 µM | [13] 8.17 µM | [14] 13.2 µM | [15] 12.2 µM | [16] 5.69 µM | [17] 8.04 µM | [18] 15.6 µM | [19] 10.6 µM

OC1CCN(c2c3ccccc3nc3ccccc23)CC1
inactive: [1] 2.79 µM | [2] 19 µM | [3] 2.69 µM | [4] 2.92 µM | [5] 2.28 µM | [6] 24.8 µM | [7] 4.52 µM | [8] 32.4 µM | [9] 27.9 µM | [10] 35.5 µM | [11] 20.4 µM | [12] 14.6 µM | [13] > 100 µM | [14] 7.23 µM | [15] 2.45 µM | [16] 8.61 µM | [17] 21.5 µM | [18] 3.36 µM | [19] 5.52 µM

Oc1ccc(O)c(CNc2ccc(C(O)C(F)(F)F)cc2)c1 (centres undefined)
inactive: [1] 21.8 µM | [2] 41.4 µM | [3] 31.6 µM | [4] 1.66 µM | [5] 32.4 µM | [6] 10.4 µM | [7] 14.2 µM | [8] 18.1 µM | [9] 16.4 µM | [10] 15.7 µM | [11] 18.4 µM | [12] 12.9 µM | [13] 8.43 µM | [14] 3.98 µM | [15] 10.3 µM | [16] 3.42 µM | [17] 35.8 µM | [18] 32.2 µM | [19] 20.1 µM

COc1ccc2c3c(c(=O)n(C)c2c1OC)C=CC(C)(C)O3
inactive: [1] 36.8 µM | [2] 17.9 µM | [3] 41.9 µM | [4] 34.5 µM | [5] 24 µM | [6] 23.9 µM | [7] 33.7 µM | [8] 12.7 µM | [9] 36.7 µM | [10] 37.8 µM | [11] 35.3 µM | [12] 36.1 µM | [13] 18 µM | [14] 48 µM | [15] 20.9 µM | [16] 11.2 µM | [17] 30.6 µM | [18] 28.4 µM | [19] 42.6 µM

CC1(C)CCCC2OC2CCC(C)(C)C1=O (centres undefined)
inactive: [1] > 100 µM | [2] > 100 µM | [3] > 100 µM | [4] > 100 µM | [5] > 100 µM | [6] > 100 µM | [7] > 100 µM | [8] > 100 µM | [9] > 100 µM | [10] > 100 µM | [11] > 100 µM | [12] > 100 µM | [13] > 100 µM | [14] > 100 µM | [15] > 100 µM | [16] > 100 µM | [17] > 100 µM | [18] > 100 µM | [19] > 100 µM

C[C@@H](CC(=O)OCc1ccccc1)OC1OC(COC(=O)C(C)(C)C)C(OC(=O)C(C)(C)C)C(OC(=O)C(C)(C)C)C1OC(=O)C(C)(C)C (some centres undefined)
inactive: [1] > 100 µM | [2] > 100 µM | [3] > 100 µM | [4] > 100 µM | [5] > 100 µM | [6] > 100 µM | [7] > 100 µM | [8] > 100 µM | [9] > 100 µM | [10] > 100 µM | [11] > 100 µM | [12] > 100 µM | [13] > 100 µM | [14] > 100 µM | [15] > 100 µM | [16] > 100 µM | [17] > 100 µM | [18] > 100 µM | [19] > 100 µM
